# Where two headings read alike, the source gives them in different places.
# Test system: C. albicans SC 5314
# Assay: Single-dose intravenous treatment of systemic candidiasis in mice
# Type: in vivo
# Conditions: Candida albicans, SC5314, iv
# Method: Female Swiss Webster mice were infected intraveneously with 5 x 10⁶ blastospores of C. albicans SC 5314 and treated one time with either ABLC or amphotericin B, five hours later. The amphotericin B was diluted in 5% dextrose for intravenous injection into the experimental mice. The ABLC formulation was also administered intravenously.
smiles,measurement,setting,value
C[C@@H]1[C@H](O)[C@@H](C)/C=C/C=C/C=C/C=C/C=C/C=C/C=C/[C@H](O[C@@H]2O[C@H](C)[C@@H](O)[C@H](N)[C@@H]2O)C[C@@H]2O[C@](O)(C[C@@H](O)C[C@@H](O)[C@H](O)CC[C@@H](O)C[C@@H](O)CC(=O)O[C@H]1C)C[C@H](O)[C@H]2C(=O)O [Amphotericin B],ED50,"5 h, read-out: ED₅₀(mg AMB/kg) Clearance",0.7 mg/kg
same,ED50,"5 h, read-out: ED₅₀(mg AMB/kg) Survival",0.46 mg/kg
same,ED50,read-out: survival ED₅₀,0.46 mg/kg
same,ED50,"single i.v. dose, infected mice, read-out: ED₅₀ based on kidney clearance",0.7 mg/kg

# From patent EP0421733B1, “Amphotericin B lipid complex” (THE LIPOSOME COMPANY, INC., priority 1989, dated 1991)
